This is an account of results in patent publication US20250275559A1, “SATURATED FATTY ACIDS AND THEIR USE TO MODIFY TASTE” (Firmenich Incorporated, priority 2022, published 2025).

Type in all cases: cell-based
In assay [1] the target is T1, T2R54 (TAS2R39) (Homo sapiens, UniProt P59534).
T1 construct: expressed in transfected cells; host or cells: cells expressing a promiscuous G protein (e.g., G16g44)
T1 sequence (P59534 1-338): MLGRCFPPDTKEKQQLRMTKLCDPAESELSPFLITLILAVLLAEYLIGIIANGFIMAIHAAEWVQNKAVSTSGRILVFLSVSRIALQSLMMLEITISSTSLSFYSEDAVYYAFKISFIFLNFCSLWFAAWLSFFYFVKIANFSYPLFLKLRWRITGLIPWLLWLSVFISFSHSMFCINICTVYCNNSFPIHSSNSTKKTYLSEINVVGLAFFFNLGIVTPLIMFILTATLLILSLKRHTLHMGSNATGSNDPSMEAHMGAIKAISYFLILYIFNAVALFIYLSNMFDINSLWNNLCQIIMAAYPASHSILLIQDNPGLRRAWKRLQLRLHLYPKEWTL
In words: FLIPR calcium assay, block of bitter agonist response in cells transfected with T2R54. As to conditions: saturated fatty acid concentration of 200 μM. Here is the method: (§1) Cells expressing a promiscuous […] (e.g., G16g44) were transfected with vectors encoding 5 functional bitter receptor cDNAs, with one receptor per transfection. The cells were transfected directly in 384-well format high-density plates and incubated for 28 hours. Later, cells were loaded with the Ca-specific dye Fluo4-AM. After an incubation of 60 minutes, excess dye is washed off, and cells are stimulated with various saturated fatty acids while simultaneously recording changes in intracellular fluorescence using a FLIPR instrument.
(§2) The above protocol was carried out using 13 different saturated fatty acids. […] Table 2 indicates the thirteen (13) compounds tested by their compound number from Table 1 above. The 6 bitter taste receptors are the human bitter taste receptors, that we named T2R01 (TAS2R01), T2R08 (TAS2R08), T2R10 (TAS2R10), T2R14 (TAS2R14), T2R54 (TAS2R39), and T2R75 (TAS2R46). The corresponding IUPHAR nomenclature for each receptor is given in parenthesis. In Table 2, these receptors are identified by the last two digits. For example, T2R01 is indicated as 01. Table 2 reports the percentage block of cellular response over baseline at a saturated fatty acid concentration of 200 μM.

In assay [2] the target is T2, T2R08 (TAS2R08) (Homo sapiens, UniProt Q9NYW2).
T2 construct: expressed in transfected cells; host or cells: cells expressing a promiscuous G protein (e.g., G16g44)
T2 sequence (Q9NYW2 1-309): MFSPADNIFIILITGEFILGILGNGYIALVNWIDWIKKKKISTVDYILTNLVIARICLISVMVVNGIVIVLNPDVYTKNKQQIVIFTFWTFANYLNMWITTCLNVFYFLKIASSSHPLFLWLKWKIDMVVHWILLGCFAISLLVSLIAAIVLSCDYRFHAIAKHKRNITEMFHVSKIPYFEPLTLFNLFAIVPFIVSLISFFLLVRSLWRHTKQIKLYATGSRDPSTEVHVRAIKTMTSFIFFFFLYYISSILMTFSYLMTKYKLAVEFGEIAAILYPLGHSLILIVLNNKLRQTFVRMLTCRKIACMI
In words: FLIPR calcium assay, block of bitter agonist response in cells transfected with T2R08. As to conditions: saturated fatty acid concentration of 200 μM, read-out: percentage block of cellular response over baseline, 08. As for the experimental part:
as §1, with “instrument. Bitter agonist and responding receptors were identified.” for “instrument.”
as §2, with “acids. A particular T2R receptor was identified as being antagonized by a particular saturated fatty acid if it triggered a >25% block of agonist's cellular response at 200 µM concentration of saturated fatty acid.” for “acids.”

Assay [3] deals with T3, T2R75 (TAS2R46) (Homo sapiens, UniProt P59540).
T3 construct: expressed in transfected cells; host or cells: cells expressing a promiscuous G protein (e.g., G16g44)
T3 sequence (P59540 1-309): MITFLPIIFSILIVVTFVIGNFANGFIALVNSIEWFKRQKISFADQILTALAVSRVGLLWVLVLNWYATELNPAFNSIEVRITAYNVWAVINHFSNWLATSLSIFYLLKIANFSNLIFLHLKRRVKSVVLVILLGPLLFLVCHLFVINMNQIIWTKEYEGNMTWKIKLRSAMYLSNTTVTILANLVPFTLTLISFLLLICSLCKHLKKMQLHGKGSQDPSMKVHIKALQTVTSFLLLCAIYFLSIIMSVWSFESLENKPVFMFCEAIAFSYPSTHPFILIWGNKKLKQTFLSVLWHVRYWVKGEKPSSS
Kind of assay: FLIPR calcium assay, block of bitter agonist response in cells transfected with T2R75. As to conditions: saturated fatty acid concentration of 200 μM. As for the experimental part:
as §1, §2

Assay [4] concerns the target T4, T2R14 (TAS2R14) (Homo sapiens, UniProt Q9NYV8).
T4 construct: expressed in transfected cells; host or cells: cells expressing a promiscuous G protein (e.g., G16g44)
T4 sequence (Q9NYV8 1-317): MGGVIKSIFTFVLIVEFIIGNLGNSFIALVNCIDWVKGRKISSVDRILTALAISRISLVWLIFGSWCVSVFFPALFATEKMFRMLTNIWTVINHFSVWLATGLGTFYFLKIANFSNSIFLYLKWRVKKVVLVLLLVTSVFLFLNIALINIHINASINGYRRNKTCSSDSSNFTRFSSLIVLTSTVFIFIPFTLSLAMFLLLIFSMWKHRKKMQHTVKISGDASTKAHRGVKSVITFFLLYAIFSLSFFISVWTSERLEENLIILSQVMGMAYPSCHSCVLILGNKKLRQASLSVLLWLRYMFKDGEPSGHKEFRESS
Kind of assay: FLIPR calcium assay, block of bitter agonist response in cells transfected with T2R14. As to conditions: saturated fatty acid concentration of 200 μM. As for the experimental part: as §1, §2

In assay [5] the target is T5, T2R10 (TAS2R10) (Homo sapiens, UniProt Q9NYW0).
T5 construct: expressed in transfected cells; host or cells: cells expressing a promiscuous G protein (e.g., G16g44)
T5 sequence (Q9NYW0 1-307): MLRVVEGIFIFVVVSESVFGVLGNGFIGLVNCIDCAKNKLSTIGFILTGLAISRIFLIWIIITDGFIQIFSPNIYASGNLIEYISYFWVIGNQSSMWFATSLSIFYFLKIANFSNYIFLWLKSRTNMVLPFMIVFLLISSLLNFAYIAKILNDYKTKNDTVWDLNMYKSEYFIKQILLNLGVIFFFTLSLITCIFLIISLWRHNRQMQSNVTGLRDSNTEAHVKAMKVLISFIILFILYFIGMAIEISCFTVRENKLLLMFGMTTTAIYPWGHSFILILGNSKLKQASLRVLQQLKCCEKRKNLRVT
In words: FLIPR calcium assay, block of bitter agonist response in cells transfected with T2R10. As to conditions: saturated fatty acid concentration of 200 μM, read-out: percentage block of cellular response over baseline, 10. Here is the method: as §1, §2

Assay [6] concerns the target T6, T2R01 (TAS2R01) (Homo sapiens, UniProt Q9NYW7).
T6 construct: expressed in transfected cells; host or cells: cells expressing a promiscuous G protein (e.g., G16g44)
T6 sequence (Q9NYW7 1-299): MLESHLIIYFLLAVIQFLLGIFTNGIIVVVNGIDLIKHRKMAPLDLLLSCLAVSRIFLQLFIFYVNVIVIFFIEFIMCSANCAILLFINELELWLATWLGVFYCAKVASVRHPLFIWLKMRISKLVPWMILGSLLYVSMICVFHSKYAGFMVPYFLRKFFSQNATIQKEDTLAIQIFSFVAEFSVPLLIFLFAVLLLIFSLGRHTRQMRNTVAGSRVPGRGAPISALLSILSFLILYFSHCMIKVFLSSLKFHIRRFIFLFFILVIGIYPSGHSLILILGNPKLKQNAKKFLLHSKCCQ
In words: FLIPR calcium assay, block of bitter agonist response in cells transfected with T2R01. As to conditions: saturated fatty acid concentration of 200 μM, read-out: percentage block of cellular response over baseline, 01. Here is the method:
as §1, §2

As to `CCCCCCCCCC(=O)O` [Compound 104, Decanoic acid (Capric acid)], the “percentage block of cellular response over baseline, 54” value (from here on “percentage block … 54”) in assay [1] is above 75%. In addition, the results for the inhibition at 200 µM in assay [2], in assay [5] and in assay [6] were above 65%, above 95% and above 75%, respectively. The “percentage block of cellular response over baseline, 75” value (from here on “percentage block … 75”) in assay [3] was above 50%. For the same molecule, the “percentage block of cellular response over baseline, 14” value (from here on “percentage block … 14”) in assay [4] is above 55%.

In the case of `CCCCC(CC)C(=O)O` (stereo not drawn) [Compound 115, 2-Ethylhexanoic acid], the “percentage block … 54” value in assay [1] was found to be 50%.

For `CCCCCCCCCCCCC(=O)O` [Compound 107, Tridecanoic acid], the “percentage block … 14” value in assay [4] is recorded as above 25%.

Regarding `CCCCCCCCCCC(=O)O` [Compound 105, Undecanoic acid], the “percentage block … 14” value in assay [4] is above 85%. Besides, the inhibition at 200 µM was above 95% in assay [5] and above 75% in assay [6].

With `CCCCCC(C)CCC(=O)O` (stereo not drawn) [Compound 121, 4-Methylnonanoic acid], the inhibition at 200 µM in assay [2] was above 55%; in assay [5], above 85%; in assay [6], above 50%. For the same molecule, in assay [4], the “percentage block … 14” value is listed as above 40%.

Consider `CCCCC(C)CCC(=O)O` (stereo not drawn) [Compound 119, 4-Methyloctanoic acid], for which the inhibition at 200 µM in assay [2] was 45%; in assay [5], above 60%; in assay [6] it was 40%.

For `CCCCCCCC(=O)O` [Compound 102, Octanoic acid (Caprylic acid)], the “percentage block … 54” value in assay [1] was found to be 90%. Further, in assay [3], the “percentage block … 75” value worked out at 30%. Further, the “percentage block … 14” value in assay [4] is on record as above 25%. The inhibition at 200 µM was 40% in assay [5] and above 30% in assay [6].

For `CCCCCCCCC(=O)O` [Compound 103, Nonanoic acid (Pelargonic acid)], the results for the inhibition at 200 µM in assay [2], in assay [5] and in assay [6] were above 50%, above 70% and above 50%, respectively. The “percentage block … 14” value in assay [4] is recorded as above 35%.

Turning to `CCCCC(CC)CCC(=O)O` (stereo not drawn) [Compound 120, 4-Ethyloctanoic acid], the “percentage block … 54” value in assay [1] amounted to 95%. For the same molecule, the inhibition at 200 µM is above 25% in assay [2], above 50% in assay [5] and above 30% in assay [6]. In addition, in assay [3], the “percentage block … 75” value worked out at 25%.

For `CCCCCCC(=O)O` [Compound 101, Heptanoic acid (Enanthic acid)], the “percentage block … 54” value in assay [1] came to 65%. Also, the inhibition at 200 µM in assay [2] came out at 25%.

As for `CCCCC(C)C(=O)O` (stereo not drawn) [Compound 114, 2-Methylhexanoic acid], the “percentage block … 54” value in assay [1] is reported as 50%.

Regarding `CCCCCC(C)C(=O)O` (stereo not drawn) [Compound 117, 2-Methylheptanoic acid], the “percentage block … 54” value in assay [1] is listed as 80%. For the same molecule, the inhibition at 200 µM in assay [2] and in assay [5] was 30% each time.

As to `CCCCCCCCCCCC(=O)O` [Compound 106, Dodecanoic acid (Lauric acid)], the figures for the inhibition at 200 µM in assay [2], in assay [5] and in assay [6] were 40%, above 85% and above 35%, respectively. Further, in assay [4], the “percentage block … 14” value came to 65%.
